Assay results published in US9796709B2, “5-hydroxy-4-(trifluoromethyl)pyrazolopyridine derivative” (Daiichi Sankyo Company, Limited, priority 2013, dated 2017).

How the values were obtained:
[1] = molecular target: T1, LCAT (Homo sapiens, UniProt P04180); experiment: LCAT activity measurement (in vitro), [14C]cholesterol esterification with HDL3 fraction; format: biochemical; conditions: HDL3 fraction from plasma of a healthy person as enzyme source and acceptor; 37° C., approximately 16 hours; relative to sample without test drug; read-out: EC50 of LCAT activation
T1 construct: The obtained fraction was dialyzed against phosphate-buffered saline (pH 7.4) and used as an enzyme source and an acceptor for LCAT; from tissue; host or cells: HDL3 fraction (1.125 < specific gravity < 1.210 g/mL) of plasma from a healthy person
T1 sequence (P04180 25-440): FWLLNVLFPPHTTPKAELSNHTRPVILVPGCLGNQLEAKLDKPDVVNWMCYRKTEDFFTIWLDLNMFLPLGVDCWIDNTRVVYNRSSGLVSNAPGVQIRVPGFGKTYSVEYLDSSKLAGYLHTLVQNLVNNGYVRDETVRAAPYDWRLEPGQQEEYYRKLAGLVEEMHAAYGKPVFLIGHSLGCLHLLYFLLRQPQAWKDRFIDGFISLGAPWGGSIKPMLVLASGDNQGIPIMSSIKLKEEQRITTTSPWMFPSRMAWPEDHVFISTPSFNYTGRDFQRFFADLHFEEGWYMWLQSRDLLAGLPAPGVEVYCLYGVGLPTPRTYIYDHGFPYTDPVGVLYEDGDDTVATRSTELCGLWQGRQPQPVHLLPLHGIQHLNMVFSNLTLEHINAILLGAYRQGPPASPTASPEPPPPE
Experimental: A fraction composed of HDL3 (1.125 <specific gravity <1.210 g/mL) was obtained from the plasma of a healthy person by density gradient centrifugation. The obtained fraction was dialyzed against phosphate-buffered saline (pH 7.4) and used as an enzyme source and an acceptor for LCAT. Each test drug was prepared by dissolution in dimethyl sulfoxide. [^14C]Cholesterol containing DTNB (Ellman's reagent, final concentration: 0.5 mM), mercaptoethanol (final concentration: 12.5 mM), and 0.6% bovine serum albumin was added to phosphate-buffered saline (pH 7.4) containing 1 mg/mL HDL3, and the test drug was further added thereto at varying concentrations to adjust the whole amount to 80 μL. This mixture was incubated at 37° C. for approximately 16 hours. Then, a mixed solution of hexane and isopropanol (mixing ratio=3:2) was added thereto to stop the reaction. After stirring, the hexane layer was collected, and this layer was evaporated to dryness. A chloroform solution (concentration: 10 mg/mL) was added thereto, and the mixture was spotted onto a thin-layer silica gel plate and developed using a mixed solution of hexane, diethyl ether, and ethyl acetate (mixing ratio=85:15:2). The radioactivity of a portion corresponding to cholesterol oleate was measured using an imaging analyzer BAS-2500 (manufactured by Fujifilm Corp.). A sample non-supplemented with the test drug was similarly treated and assayed. The EC50 value of LCAT activation was calculated according to the expression given below relative to LCAT activity in the sample non-supplemented with the test drug.
[formula] • wherein X represents the logarithm of the concentration of the test drug; • Y represents the responsiveness (LCAT activity) of the test drug; • Top represents the maximum value (maximum plateau); • Bottom represents the minimum value (minimum plateau); and • EC50 represents the 50% effective concentration.

[2] = tested on: cynomolgus monkey; experiment: Drug efficacy test in cynomolgus monkeys (plasma HDL cholesterol); format: in vivo; conditions: Macaca fascicularis, oral, single dose of 10 mg/kg, from AUC before administration and 24 hours after administration, read-out: Rate of increase in HDL level after administration of single dose
Experimental: Each test drug was dissolved in a propylene glycol (Sigma-Aldrich Corp.)-Tween 80 (Sigma-Aldrich Corp.) mixed solution [4/1 (v/v)] or a 0.5% (w/v) methylcellulose aqueous solution, and the solution was orally administered to a cynomolgus monkey for 1 or 7 days. At day 1 or 7 of the administration period, blood was collected before administration and after administration, and plasma was obtained. The content of cholesterol in the plasma was measured using a commercially available assay kit (Cholesterol-E Wako, Wako Pure Chemical Industries, Ltd.). The lipoprotein profile was analyzed by HPLC (column: LipopropakXL, manufactured by Tosoh Corp.). The contents of HDL cholesterol and non-HDL cholesterol were calculated according to the following calculation expression: Content of HDL cholesterol=Content of cholesterol in the plasma×(Peak area of HDL cholesterol/Total sum of peaks) Content of non-HDL cholesterol=Content of cholesterol in the plasma×(Peak area of non-HDL cholesterol/Total sum of peaks)

Structure (SMILES): O=C1Nc2[nH]nc(C3CCN(c4ccc(Cl)cn4)CC3)c2[C@@H](C(F)(F)F)[C@H]1O (single isomer, unassigned) [Example 22, (+)-cis-3-[1-(5-Chloropyridin-2-yl)piperidin-4-yl]-5-hydroxy-4-(trifluoromethyl)-1,4,5,7-tetrahydro-6H-pyrazolo[3,4-b]pyridin-6-one]
- EC50 [1]: 32 nM
- change in vivo at 10 mg/kg [2]: 581%

Structure (SMILES): O=C1Nc2[nH]nc(C3CCN(c4cc(C(F)(F)F)ncn4)CC3)c2[C@@H](C(F)(F)F)[C@H]1O (single isomer, unassigned) [Example 30, (+)-cis-5-Hydroxy-4-(trifluoromethyl)-3-{1-[6-(trifluoromethyl)pyrimidin-4-yl]piperidin-4-yl}-1,4,5,7-tetrahydro-6H-pyrazolo[3,4-b]pyridin-6-one]
- EC50 [1]: 63 nM
- change in vivo at 10 mg/kg [2]: 290%

Structure (SMILES): O=C1Nc2[nH]nc(C3CCN(c4cnc(C(F)(F)F)cn4)CC3)c2C(O)(C(F)(F)F)C1O (single isomer, unassigned; (+)) [Example 34, (+)-4,5-Dihydroxy-4-(trifluoromethyl)-3-{1-[5-(trifluoromethyl)pyrazin-2-yl]piperidin-4-yl}-1,4,5,7-tetrahydro-6H-pyrazolo[3,4-b]pyridin-6-one]
- EC50 [1]: 4 nM
- change in vivo at 10 mg/kg [2]: 590%

Structure (SMILES): O=C1Nc2[nH]nc(C3CCN(c4ccc(C(F)(F)F)cn4)CC3)c2C(O)(C(F)(F)F)C1O (single isomer, unassigned; (+)) [Example 35, (+)-4,5-Dihydroxy-4-(trifluoromethyl)-3-{1-[5-(trifluoromethyl)pyridin-2-yl]piperidin-4-yl}-1,4,5,7-tetrahydro-6H-pyrazolo[3,4-b]pyridin-6-one]
- EC50 [1]: 7 nM
- change in vivo at 10 mg/kg [2]: 482%
